No end group written: not given here.

Experiment [1] relates to mouse colon cancer cell line MC26. On the set-up: method as in Narayan et al., 1990. The note with it: [3H]thymidine incorporation and MTT assays; ref Narayan et al., 1990; cited from earlier work. In general terms: Dividing cells build labelled thymidine or BrdU into new DNA.
Another experiment has as its system human colorectal cancers. On the set-up: method as in Radulovic et al., 1992. The note with it: ref Radulovic et al., 1992; cited from earlier work.
A further experiment deals with matched mucosa. On the set-up: method as in Radulovic et al., 1992. The note with it: ref Radulovic et al., 1992; cited from earlier work.
In experiment [2] the test system is bombesin binding sites on human colorectal cancer tissue (GRP-preferring subtype). The experiment in a line: Radioligand displacement binding on human colorectal cancer membranes. Particulars: for Radioligand displacement achieved over the concentration range: [125I]Tyr4-BBS; for Radioligand displacement achieved over the concentration range / Relative affinity for the binding site (GRP, BBS >> NMB): five binding site-positive tumours; for Relative affinity for the binding site (GRP, BBS >> NMB): displacement of [125I]Tyr4-bombesin. On the technique in general: Displacement assays read how much labelled ligand stays bound in the presence of the test substance.

Where [3] appears, read: competitor 1 x 10-11 to 1 x 10^-6 M.

In the case of bombesin [BBS], in experiment [1], the Effect on growth entry was “stimulated growth”. The “Percentage of human colorectal cancers expressing bombesin binding sites” value in the experiment on human colorectal cancers was 40%. Further, the “Matched mucosa binding site positive” value with matched mucosa is recorded as “none of the matched mucosa were binding site positive”. Also, in experiment [2] (setting [3]), the “Radioligand displacement achieved over the concentration range” value is reported as “Full radioligand displacement was achieved”. For the same substance, the “Relative affinity for the binding site (GRP, BBS >> NMB)” value (from here on “Relative affinity for the binding site”) in experiment [2] is given as “GRP, BBS >> NMB”.

Turning to “gastrin-releasing peptide (VPLPAGGGTVLTKMYPRGNHWAVGHLM; ends and bridges not checked; UniProt P07492 24-50, looked up) [GRP, mammalian bombesin-like peptide (Bachem)]”, in experiment [2] (setting [3]), the “Radioligand displacement achieved over the concentration range” value is “Full radioligand displacement was achieved”. Further, the “Relative affinity for the binding site” value in experiment [2] was “GRP, BBS >> NMB”.

On to neuromedin B [NMB], for which, in experiment [2], the “Relative affinity for the binding site” value is recorded as “GRP, BBS >> NMB”. Moreover, the “IC50 for displacement of [125I]Tyr4-BBS” value in experiment [2] (membrane preparations, approximately 200 pM radioligand, competitor 1 x 10-11 to 1 x 10^-6 M, six tubes per point, mean (± s.e.m.) of the five binding site-positive cancers) is on record as “> lOOO”. Further, in experiment [2] (of the five binding site-positive tumours, competitor 1 x 10-11 to 1 x 10^-6 M), the “50% displacement of specific binding: number of tumours in which achieved” value is “only achieved in two of the five binding site-positive tumours”.

(Values after paper PMC2033785, “High-affinity binding sites for gastrin-releasing peptide on human colorectal cancer tissue but not uninvolved mucosa” (British Journal of Cancer, 1995).)
